Test results taken from PMC4698308, “A new amino acid substitution (Ala-205-Phe) in acetolactate synthase (ALS) confers broad spectrum resistance to ALS-inhibiting herbicides” (Planta, 2015).
pIC50: −log10 of the molar value. Like-named read-outs stand apart in the source and are kept apart here.

Columns and labels:
[1] = system: annual bluegrass population POAAN-R3; set-up: method as in Brosnan et al. [2015]; conditions: ref Brosnan et al. [2015], cited from earlier work
[2] = system: annual bluegrass (Poa annua L.); assay: Whole plant confirmation of target-site resistance (visual control and dry biomass 28 days after treatment); assay type: in vivo
Experimental: Progeny of all POAAN-R3 plants subjected to genetic sequencing (RP1–RP8) were surface seeded into separate 10.2 × 10.2 cm greenhouse pots (Dillen Products/Myers Industries, Inc. Middlefield, OH, USA.) filled with a peat moss growing medium (ProMix BX Mycorrhizae. Premier Tech Horticulture, Quakertown, PA, USA) on 5 January 2015. The susceptible annual bluegrass population (S) included in our sequencing analysis was also seeded in the same fashion.
After seeding, pots were placed inside a growth chamber (Conviron A1000. Controlled Environments Inc, Hendersonville, NC) configured to provide 14 h day at 19 °C and a 10 h night at 10 °C. Light intensity inside the chamber averaged 296 μmol m^−2 s^−1. Irrigation was applied to each pot daily using distilled water and a misting nozzle. Annual bluegrass emergence was first noted on 16 January 2015. Plants remained inside the growth chamber until 26 January 2015. On this date, seedlings of each plant (RP1–RP8, S) were transplanted into individual 164 cm^3 plastic conical containers (SC10 Super Cell Cone-tainer. Stuewe and Sons. Tangent, OR 97389) filled with Sequatchie silt loam (fine-loamy, siliceous, semiactive, thermic humic Hapludult) measuring 6.2 in soil pH and 2.1 % in organic matter content. Transplants were replicated such that 32 plastic conical containers were created for each annual bluegrass plant analyzed in previous experiments (RP1–RP8, S). Immediately after transplanting, plastic conical containers were placed in a glasshouse located at the University of Tennessee (Knoxville, TN, USA; 35.56, 83.56). Peak light intensity in this glasshouse averaged 714 μmol m^−2 s^−1 with day/night temperatures averaging 27/17 °C. Irrigation was applied daily using an overhead misting system and plants were not clipped prior to initiating this study.
Plants were allowed to acclimate to this glasshouse environment for 10 days prior to being treated with foramsulfuron (Revolver. Bayer Environmental Sciences. Research Triangle Park, NC, USA) at 29 g ha^−1, imazamox (Clearcast. BASF Corporation. Research Triangle Park, NC) at 140 g ha^−1, or simazine (Princep 4L. Syngenta Professional Products. Greensboro, NC) at 1120 g ha^−1. Per label recommendations, imazamox and simazine treatments included a non-ionic surfactant (Activator-90. Loveland Products Inc. Greeley, CO, USA) at 0.25 % v/v. All treatments were applied in an enclosed spray chamber (Generation III track sprayer. DeVries Manufacturing, Hollandale, MN, USA) using a water carrier at 215 L ha^−1 through an 8004 EVS nozzle (TeeJet, Technologies, Spraying Systems Co., Glendale Heights, IL, USA). These herbicide treatments were selected to confirm results of genetic sequencing that RP1–RP8 were resistant to sulfonylurea, imidazolinone, and photosystem II inhibiting herbicides. A non-treated control treatment was included with each resistant (RP1–RP8) and susceptible (S) plant for comparison. Herbicides were applied on 5 February 2015 when plants were at a two-to-three leaf stage, prior to annual bluegrass tiller formation.
Annual bluegrass control was visually assessed on a 0 (i.e., no control) to 100 % (i.e., complete kill) scale relative to the non-treated 28 days after treatment. After all control data had been collected, aboveground biomass was harvested from each plastic conical container at the soil line using scissors, dried at 100 °C for 3 days, and weighed.
Treatments were arranged as a 9 × 4 factorial with nine plant selections (i.e., RP1–RP8, S) and four herbicide treatments (i.e., foramsulfuron, imazamox, simazine, non-treated) in a completely randomized design with four replications and repeated in time and space during February 2015. Plants were the same age during both experimental runs.

[3] = system: annual bluegrass (Poa annua L.); assay: Whole plant non-target site resistance experiment with P450 inhibitors malathion or PBO (control 21 days after treatment); assay type: in vivo; conditions: for Annual bluegrass control S: susceptible (S)
Experimental: Additional experiments were conducted during March–April 2015 to determine if non-target site based mechanisms conferred resistance to ALS inhibitors in our annual bluegrass population, POAAN-R3. Plants (RP6, RP7, and S) were cultured in plastic conical containers as previously described and allowed to acclimate to the glasshouse for 18 days prior to initiating two experiments.
In the first experiment, resistant (RP6, RP7) and susceptible (S) plants were treated with foramsulfuron at 29 g ha^−1, trifloxysulfuron (Monument. Syngenta Professional Products. Greensboro, NC, USA) at 27.8 g ha^−1, imazaquin (Image. BASF Corporation. Research Triangle Park, NC) at 27.5 g ha^−1, or bispyribac-sodium (Velocity. Valent USA Corporation. Walnut Creek, CA, USA) at 70 g ha^−1. All herbicides were applied alone or in combination with either malathion (Spectrum Group. St. Louis, MO, USA) at 1000 g ha^−1 or piperonyl butoxide (Sigma Aldrich. St. Louis, MO, USA) at 2100 g ha^−1. Malathion and piperonyl butoxide (PBO) inhibit cytochrome P450 monooxygenases involved in metabolism of ALS inhibiting herbicides and are commonly used at the application rates tested herein to evaluate non-target site based resistance mechanisms in weeds (Burnet et al. [1994]; Christopher et al. [1992]; Yu and Powles [2014b]; Rao et al. [1995]). All herbicides were mixed in water carrier and included non-ionic surfactant at 0.25 % v/v. Malathion and PBO were mixed with methanol and de-ionized water (50:50) and applied 60 min prior to herbicide application using a previously described enclosed spray chamber on 13 February 2015.
Annual bluegrass control was visually assessed on a 0 (i.e., no control) to 100 % (i.e., complete kill) scale relative to the non-treated 21 days after treatment. After all control data had been collected, aboveground biomass was harvested from each plastic conical container at the soil line using scissors, dried at 100 °C, and weighed. Treatments were arranged as a 3 × 5 × 3 factorial with three plant selections (RP6, RP7, S), five herbicides (foramsulfuron, trifloxysulfuron, imazaquin, bispyribac-sodium, non-treated) and three P450 inhibitor treatments (malathion, PBO, non-treated) in a completely randomized design with four replications and repeated in separate glasshouses during February 2015.

[4] = system: recombinant Arabidopsis thaliana ALS variant W574L; assay type: biochemical; conditions: IC50 mutant divided by IC50 sensitive ALS; max inhibitor concentration 1.00 × 10^−04 M
Experimental: (§1) Effects of SNPs identified in sequencing analysis on ALS activity were studied using A. thaliana. The ALS gene from A. thaliana and derivatives thereof were de novo synthesized and subcloned into pET-24d(+) (Life Technologies. Grand Island, NY, USA) using NcoI and XhoI restriction sites. Protein constructs contained an 85 amino acid N-terminal deletion (chloroplast transit peptide) and the addition of an N-terminal Hexa-histidine tag to facilitate purification.
(§2) Lysis was performed by at least two passes through a fluidizer, followed by centrifuging at 80000×g for 30 min at 4 °C. […] Fractions containing ALS protein were pooled and stored at −20 °C.
(§3) Inhibitors, purchased from Sigma as Pestanal standards (Sigma-Aldrich, Deisenhofen, Germany), were dissolved in DMSO and added to the reaction mixture. Inhibitors evaluated included imidazolinone, sulfonylurea, triazolopyrimidines, sulfonylamino-carbonyl- triazolinones, and pyrimidinyl (thio) benzoate herbicides. The reaction mixture was incubated at 30 °C for 60 min and stopped with 70 µl of H2SO4 (3 M). The reaction was then heated to 56 °C for 15 min to convert acetolactate into acetoin. […] For each inhibitor, resistance factors were calculated by dividing IC50 values for mutant and sensitive ALS.

[5] = system: recombinant Arabidopsis thaliana ALS variant A205V; assay type: biochemical; conditions: IC50 mutant divided by IC50 sensitive ALS; max inhibitor concentration 1.00 × 10^−04 M
Experimental: as §1, §2, §3

[6] = system: recombinant Arabidopsis thaliana ALS variant A205F; assay type: biochemical; conditions: IC50 mutant divided by IC50 sensitive ALS; max inhibitor concentration 1.00 × 10^−04 M
Experimental: as §1, §2, §3

[7] = target: T1, recombinant Arabidopsis thaliana ALS wild-type enzyme (WT—sensitive) (Arabidopsis thaliana, UniProt P17597); assay: biochemical
T1 construct: Protein constructs contained an 85 amino acid N-terminal deletion (chloroplast transit peptide); Hexa-histidine tag (N); made in house
Experimental: as §1, §2, §3

[8] = RP6, herbicide alone, foramsulfuron 29, trifloxysulfuron 27.8, imazaquin 27.5, bispyribac-sodium 70 g ha^−1
[9] = RP6, herbicide with PBO 2100 g ha^−1 applied 60 min prior
[10] = RP6, herbicide with malathion 1000 g ha^−1 applied 60 min prior
[11] = RP7, herbicide alone, foramsulfuron 29, trifloxysulfuron 27.8, imazaquin 27.5, bispyribac-sodium 70 g ha^−1
[12] = RP7, herbicide with PBO 2100 g ha^−1 applied 60 min prior
[13] = RP7, herbicide with malathion 1000 g ha^−1 applied 60 min prior
[14] = herbicide alone, foramsulfuron 29, trifloxysulfuron 27.8, imazaquin 27.5, bispyribac-sodium 70 g ha^−1
[15] = herbicide with PBO 2100 g ha^−1 applied 60 min prior
[16] = herbicide with malathion 1000 g ha^−1 applied 60 min prior

T1 sequence (P17597 86-670): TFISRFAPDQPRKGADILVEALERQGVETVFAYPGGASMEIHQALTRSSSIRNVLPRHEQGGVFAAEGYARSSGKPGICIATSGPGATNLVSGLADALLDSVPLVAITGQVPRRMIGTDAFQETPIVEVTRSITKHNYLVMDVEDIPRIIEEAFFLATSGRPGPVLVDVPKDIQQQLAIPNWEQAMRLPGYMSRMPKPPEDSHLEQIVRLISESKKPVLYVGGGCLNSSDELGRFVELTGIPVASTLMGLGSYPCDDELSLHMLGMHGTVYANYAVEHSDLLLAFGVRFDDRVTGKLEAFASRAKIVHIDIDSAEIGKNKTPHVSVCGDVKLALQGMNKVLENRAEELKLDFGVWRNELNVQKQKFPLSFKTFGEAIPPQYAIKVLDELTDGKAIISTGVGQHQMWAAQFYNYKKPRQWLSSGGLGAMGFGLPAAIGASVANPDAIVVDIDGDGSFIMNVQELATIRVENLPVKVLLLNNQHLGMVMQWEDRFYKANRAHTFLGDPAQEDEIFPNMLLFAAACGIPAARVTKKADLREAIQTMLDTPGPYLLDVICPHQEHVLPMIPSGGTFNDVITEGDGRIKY

CCNc1nc(Cl)nc(NCC)n1 [Simazine]
control of POAAN-R3 ([1]; 140 to 9000 g ha^−1): ≤ 20%
Annual bluegrass biomass RP1 ([2]; RP1, aboveground dry biomass 28 days after treatment, foramsulfuron 29, imazamox 140, simazine 1120 g ha^-1): 124 % of nontreated control
Annual bluegrass control RP1 ([2]; RP1 plants, 28 days after treatment, 2 to 3 leaf stage, foramsulfuron 29, imazamox 140, simazine 1120 g ha^−1): 0%
Annual bluegrass biomass RP2 ([2]; RP2, aboveground dry biomass 28 days after treatment, foramsulfuron 29, imazamox 140, simazine 1120 g ha^-1): 105 % of nontreated control
Annual bluegrass control RP2 ([2]; RP2 plants, 28 days after treatment, 2 to 3 leaf stage, foramsulfuron 29, imazamox 140, simazine 1120 g ha^−1): 0%
Annual bluegrass biomass RP3 ([2]; RP3, aboveground dry biomass 28 days after treatment, foramsulfuron 29, imazamox 140, simazine 1120 g ha^-1): 140 % of nontreated control
Annual bluegrass control RP3 ([2]; RP3 plants, 28 days after treatment, 2 to 3 leaf stage, foramsulfuron 29, imazamox 140, simazine 1120 g ha^−1): 0%
Annual bluegrass biomass RP4 ([2]; RP4, aboveground dry biomass 28 days after treatment, foramsulfuron 29, imazamox 140, simazine 1120 g ha^-1): 95 % of nontreated control
Annual bluegrass control RP4 ([2]; RP4 plants, 28 days after treatment, 2 to 3 leaf stage, foramsulfuron 29, imazamox 140, simazine 1120 g ha^−1): 0%
Annual bluegrass biomass RP5 ([2]; RP5, aboveground dry biomass 28 days after treatment, foramsulfuron 29, imazamox 140, simazine 1120 g ha^-1): 82 % of nontreated control
Annual bluegrass control RP5 ([2]; RP5 plants, 28 days after treatment, 2 to 3 leaf stage, foramsulfuron 29, imazamox 140, simazine 1120 g ha^−1): 0%
Annual bluegrass biomass RP6 ([2]; RP6, aboveground dry biomass 28 days after treatment, foramsulfuron 29, imazamox 140, simazine 1120 g ha^-1): 0 % of nontreated control
Annual bluegrass control RP6 ([2]; RP6 plants, 28 days after treatment, 2 to 3 leaf stage, foramsulfuron 29, imazamox 140, simazine 1120 g ha^−1): 100%
Annual bluegrass biomass RP7 ([2]; RP7, aboveground dry biomass 28 days after treatment, foramsulfuron 29, imazamox 140, simazine 1120 g ha^-1): 99 % of nontreated control
Annual bluegrass control RP7 ([2]; RP7 plants, 28 days after treatment, 2 to 3 leaf stage, foramsulfuron 29, imazamox 140, simazine 1120 g ha^−1): 0%
Annual bluegrass biomass RP8 ([2]; RP8, aboveground dry biomass 28 days after treatment, foramsulfuron 29, imazamox 140, simazine 1120 g ha^-1): 101 % of nontreated control
Annual bluegrass control RP8 ([2]; RP8 plants, 28 days after treatment, 2 to 3 leaf stage, foramsulfuron 29, imazamox 140, simazine 1120 g ha^−1): 0%
Annual bluegrass control S ([2]; susceptible (S) plants, 28 days after treatment, 2 to 3 leaf stage, foramsulfuron 29, imazamox 140, simazine 1120 g ha^−1): 98%
Annual bluegrass biomass S ([2]; susceptible (S), aboveground dry biomass 28 days after treatment, foramsulfuron 29, imazamox 140, simazine 1120 g ha^-1): 5 % of nontreated control

COc1cc(OC)nc(NC(=O)NS(=O)(=O)c2ncccc2OCC(F)(F)F)n1 [Trifloxysulfuron]
Annual bluegrass control RP6 [3, 8]: 38%
Annual bluegrass control RP6 [3, 9]: 55%
Annual bluegrass control RP6 [3, 10]: 49%
Annual bluegrass control RP7 [3, 11]: 22%
Annual bluegrass control RP7 [3, 12]: 17%
Annual bluegrass control RP7 [3, 13]: 28%
Annual bluegrass control S [3, 14]: 94%
Annual bluegrass control S [3, 15]: 94%
Annual bluegrass control S [3, 16]: 92%
Resistance factor W574L [4]: 6447
Resistance factor A205V [5]: 9
Resistance factor A205F [6]: 2983
pIC50 ([7]; concentration for 50 % inhibition of WT enzyme, max inhibitor concentration 1.00 × 10^−04 M, read-out: WT sensitivity [IC50]): 8.23
control of POAAN-R3 ([1]; rates as high as 223 g ha^−1): ≤ 40%

CC(C)C1(C)N=C(c2nc3ccccc3cc2C(=O)O)NC1=O (stereo not shown) [Imazaquin]
Annual bluegrass control RP6 [3, 8]: 36%
Annual bluegrass control RP6 [3, 9]: 24%
Annual bluegrass control RP6 [3, 10]: 32%
Annual bluegrass control RP7 [3, 11]: 11%
Annual bluegrass control RP7 [3, 12]: 9%
Annual bluegrass control RP7 [3, 13]: 8%
Annual bluegrass control S [3, 14]: 53%
Annual bluegrass control S [3, 15]: 71%
Annual bluegrass control S [3, 16]: 64%
Resistance factor W574L [4]: 65
Resistance factor A205V [5]: 36
Resistance factor A205F [6]: 19
pIC50 [7]: 5.81
